From PMC6117024, “NOP receptor pharmacological profile – A dynamic mass redistribution study” (PLoS ONE, 2018)

Experiments:
[1] = system: NOP receptor; settings: cited from earlier work
Description: This is in general in line with literature reports (see Table 2 of [3] that summarizes the action of these compounds in various assays/preparations at human recombinant and rodent native NOP receptors). However, there are some aspects that deserve attention.

[2] = target: T1, human NOP receptor (Homo sapiens, UniProt P41146); experiment: DMR assay in CHONOP cells, agonist effects; settings: for Emax: DMR maximal effect; for DMR response, CHONOP: pm ± sem; for maximal effects compared with N/OFQ: DMR; for pEC50: DMR peak, at least 3 experiments in triplicate, inactive = no DMR response up to 1 μM, parentheses: CL95% (Fig 3)
[3] = system: CHO cells; experiment: DMR in wild type CHO cells; settings: for DMR response, CHO: CHO cells, pm ± sem
[4] = target: T1, human NOP receptor; assay type: cell-based; set-up: expressed in transfected cells; settings: comparison N/OFQ and Ac-RYYRIK-NH2
[5] = target: T1, human NOP receptor; experiment: DMR assay in CHONOP cells, antagonism of agonist concentration response curve
[6] = target: T1, human NOP receptor; experiment: Classical Schild protocol, DMR in CHONOP cells
[7] = system: NOP receptor (control neurons); settings: electrophysiology; cited from earlier work
[8] = system: NOP receptor (transfected neurons); settings: electrophysiology; cited from earlier work
[9] = target: human Nociceptin/Orphanin FQ (N/OFQ) peptide NOP receptor (human) (UniProt P41146)
[10] = target: mu opioid receptor (UniProt P35372)
[11] = target: human Nociceptin/Orphanin FQ (N/OFQ) peptide NOP receptor (human) (UniProt P41146); remark: listed apart in the source
[12] = CHONOP cells, 1 μM, 37°C, * p < 0.05 vs buffer (one-way ANOVA, Dunnett's)
[13] = 1 μM, 37°C, * p < 0.05 vs buffer (one-way ANOVA, Dunnett's)
[14] = CHONOP cells, 100 μM, * p < 0.05 vs buffer

Sequence of human Nociceptin/Orphanin FQ (N/OFQ) peptide NOP receptor (human) (P41146 whole entry): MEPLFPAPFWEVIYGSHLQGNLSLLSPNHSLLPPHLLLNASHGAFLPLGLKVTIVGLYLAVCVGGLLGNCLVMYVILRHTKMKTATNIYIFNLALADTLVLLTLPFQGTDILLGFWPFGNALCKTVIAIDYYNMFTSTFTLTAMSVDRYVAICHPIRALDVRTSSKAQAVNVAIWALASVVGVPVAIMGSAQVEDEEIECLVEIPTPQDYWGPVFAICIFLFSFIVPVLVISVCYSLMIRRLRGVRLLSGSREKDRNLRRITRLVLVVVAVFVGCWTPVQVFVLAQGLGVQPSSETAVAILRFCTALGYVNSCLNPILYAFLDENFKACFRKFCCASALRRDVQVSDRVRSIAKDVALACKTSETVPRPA
T1 sequence (P41146 whole entry): as above
Sequence of mu opioid receptor (P35372 whole entry): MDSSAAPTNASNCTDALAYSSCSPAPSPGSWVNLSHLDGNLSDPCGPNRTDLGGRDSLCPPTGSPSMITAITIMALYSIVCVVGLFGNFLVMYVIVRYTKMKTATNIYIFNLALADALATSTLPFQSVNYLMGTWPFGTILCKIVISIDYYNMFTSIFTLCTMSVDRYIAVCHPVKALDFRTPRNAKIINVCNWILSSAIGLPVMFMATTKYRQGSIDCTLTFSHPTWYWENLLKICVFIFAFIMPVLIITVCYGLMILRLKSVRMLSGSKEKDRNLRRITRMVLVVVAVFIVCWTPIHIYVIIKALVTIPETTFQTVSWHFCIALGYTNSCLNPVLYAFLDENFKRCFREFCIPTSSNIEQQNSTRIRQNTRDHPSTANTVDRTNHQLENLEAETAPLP

## CC(C)C1CCC(N2CCC(N3C(=O)C(=O)c4ccccc43)CC2)CC1 (centres unmarked) [AT-090]
[1]
  efficacy vs N/OFQ, GTPγS binding: significantly lower efficacy than N/OFQ
  efficacy vs N/OFQ, NOP/G protein interaction: significantly lower efficacy than N/OFQ
[2]
  intrinsic activity (α): 1.23
[2]; CHONOP cells
  Emax: 252
[2]; [12]
  DMR response, CHONOP: 252±15 ^* pm
[2]; CHONOP
  maximal effects compared with N/OFQ: not statistically different to those of N/OFQ
[3]; [13]
  DMR response, CHO: 21±3 pm

## Nc1ncnc2c1ncn2[C@@H]1O[C@H](COP(=O)(O)OP(=O)(O)OP(=O)(O)O)[C@@H](O)[C@H]1O [ATP]
[2]; [14]
  DMR response, CHONOP: 185±12 ^* pm
[3]; 100 μM, * p < 0.05 vs buffer
  DMR response, CHO: 177±15 ^* pm

## CC[C@H](C)[C@H](NC(=O)[C@H](CCCNC(=N)N)NC(=O)[C@H](Cc1ccc(O)cc1)NC(=O)[C@H](Cc1ccc(O)cc1)NC(=O)[C@H](CCCNC(=N)N)NC(C)=O)C(=O)N[C@@H](CCCCN)C(N)=O [Ac-RYYRIK-NH2]
[1]
  efficacy vs N/OFQ, GTPγS binding: significantly lower efficacy than N/OFQ
  efficacy vs N/OFQ, NOP/G protein interaction: significantly lower efficacy than N/OFQ
[2]
  intrinsic activity (α): 0.89
[2]; CHONOP cells
  Emax: 182
[2]; [12]
  DMR response, CHONOP: 182±11 ^* pm
[2]; CHONOP
  maximal effects compared with N/OFQ: not statistically different to those of N/OFQ
[2]; after 1000 sec, in some but not all experiments
  negative DMR signal: concentration dependent negative signal after 1000 sec
[4]
  sensitivity of DMR response to PTX: equally sensitive to PTX
[5]; comparison N/OFQ and Ac-RYYRIK-NH2
  sensitivity of DMR response to SB-612111: equally sensitive to PTX and to the NOP selective antagonist SB-612111
[3]; [13]
  DMR response, CHO: 17±8 pm

## C=C[C@@]1(C)CC(=O)[C@]2(O)[C@@]3(C)[C@@H](O)CCC(C)(C)[C@@H]3[C@H](O)[C@H](OC(C)=O)[C@@]2(C)O1 [FSK]
[2]; [14]
  DMR response, CHONOP: -164±15 ^* pm
[3]; 100 μM, * p < 0.05 vs buffer
  DMR response, CHO: -172±23 ^* pm

## C=CCN1CC[C@]23c4c5ccc(O)c4O[C@H]2C(=O)CC[C@@]3(O)[C@H]1C5 [Naloxone]
[3]; [13]
  DMR response, CHO: 23±5 pm

## O=C1NCN(c2ccccc2)C12CCN(C1Cc3cccc4cccc1c34)CC2 (centres unmarked) [Ro 65–6570]
[3]; 10 μM
  activity in wild type CHO cells: exhibited a DMR response in wild type CHO cells
[3]; [13]
  DMR response, CHO: 23±8 pm

## Cc1cccc2c1CC[C@H](CN1CCC(c3c(Cl)cccc3Cl)CC1)C[C@@H]2O [SB-612111, (-)-cis-1-methyl-7-[[4-(2,6-dichlorophenyl)piperidin-1-yl]methyl]-6,7,8,9-tetrahy dro-5H-benzocyclohepten-5-ol]
[2]; CHONOP cells
  effect per se in CHONOP cells: did not produce any effect per se
[2]; CHONOP cells, 37°C
  pEC50: inactive
[2]; [12]
  DMR response, CHONOP: -10±9 pm
[3]; [13]
  DMR response, CHO: 26±3 pm
[6]; 10 nM–1 μM
  effect on N/OFQ maximal effects (Schild): without significantly affecting its maximal effects
[6]; vs N/OFQ, Schild plot
  Schild slope: ~1

## CCn1c(=O)n(C2=C(CO)CN(CC3CCCCCCC3)CC2)c2ccccc21 [Trap-101]
[7]
  activity in control neurons: pure antagonists
[8]
  activity in NOP transfected neurons: inverse agonists

## C[C@H](NC(=O)CNC(=O)[C@@H](NC(=O)[C@H](Cc1ccccc1)NC(=O)CNC(=O)CNC(=O)CNCc1ccccc1)[C@@H](C)O)C(=O)N[C@@H](CCCNC(=N)N)C(=O)N[C@@H](CCCCN)C(=O)N[C@@H](CO)C(=O)N[C@@H](C)C(=O)N[C@@H](CCCNC(=N)N)C(=O)N[C@@H](CCCCN)C(=O)N[C@@H](CCCNC(=N)N)C(=O)N[C@@H](CCCCN)C(=O)N[C@@H](CC(N)=O)C(=O)N[C@@H](CCC(N)=O)C(N)=O [UFP-101, [Nphe1,Arg14,Lys15]nociceptin-NH2]
[2]; CHONOP cells, 37°C
  pEC50: crc incomplete
[2]; CHONOP, % of the maximal effects of N/OFQ
  stimulatory effect per se: ~20%
[5]
  Kb: 25.1 nM

## Ac-RYYRIK-NH2 (peptide)
[9]
  DMR response at 1 μM, CHONOP cells: 182 pm

## Dermorphin (peptide)
[10]
  pEC50 of the DMR response, CHO cells expressing the mu opioid receptor: 8.59 -log10(M)

## PWT2-N/OFQ (peptide)
[9]
  DMR response at 0.1 μM, CHONOP cells: 198 pm
[11]
  intrinsic activity α (Emax relative to N/OFQ), DMR, CHONOP cells (relative to N/OFQ): 0.97
  pEC50 of the DMR response (peak), CHONOP cells, tested up to 0.1 μM: 8 -log10(M)

## UFP-101 (peptide)
[9]
  DMR response at 1 μM, CHONOP cells (not marked as different from buffer): 40 pm
[11]
  pKB (antagonist potency): rightward shift by 1 μM UFP-101 of the concentration response curve to N/OFQ at the NOP receptor, DMR, CHONOP cells: 7.6 -log10(M)

## UFP-112 (peptide)
[9]
  DMR response at 1 μM, CHONOP cells: 248 pm
[11]
  intrinsic activity α (Emax relative to N/OFQ), DMR, CHONOP cells (relative to N/OFQ): 1.21
  pEC50 of the DMR response (peak), CHONOP cells: 8.66 -log10(M)

## [Arg^14,Lys^15]N/OFQ (peptide)
[9]
  DMR response at 1 μM, CHONOP cells: 271 pm

## [F/G]N/OFQ(1–13)-NH2 (peptide)
[9]
  DMR response at 1 μM, CHONOP cells: 200 pm
[11]
  intrinsic activity α (Emax relative to N/OFQ), DMR, CHONOP cells (relative to N/OFQ): 0.98
  pEC50 of the DMR response (peak), CHONOP cells: 8.06 -log10(M)

## [Nphe^1]N/OFQ(1–13)-NH2 (peptide)
[9]
  DMR response at 1 μM, CHONOP cells: 180 pm
